Experiment in all cases: NCI-60 cell line screen, 48 h
Test [1] has as its system DLD-1.
Test [2] deals with SK-MEL-2.
The test system of test [3] is SK-MEL-5.
Test [4] relates to EKVX.
Test [5] concerns HOP-62.
Test [6] relates to NCI-H460.
The subject of test [7] is IGROV-1.
The subject of test [8] is HCT-15.
For test [9], the system named is OVCAR-8.
In test [10] the test system is SN12C.
The subject of test [11] is SK-MEL-28.
Test [12] deals with HCT-116.
Test [13] concerns ACHN.
Test [14] has as its system KM12.
Test [15] deals with SF-295.
Test [16] concerns NCI-H226.
In test [17] the test system is NCI-H522.

This note sets out measurements from ChEMBL document CHEMBL1201862, “PubChem BioAssay data set” (2004).

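Briefly, cells in 96-well plates were exposed to five compound concentrations for 48 h, and endpoints were estimated by linear interpolation. The concentration for 50% growth inhibition is given as GI50.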 Calls of active or inactive are those of the source. No stated cut-off is given here; in the data, active = GI50 up to about 1.1 µM and inactive = higher. Bounds are passed on as bounds.

In the case of `c1ccc(C(c2ccccc2)c2cccnc2)cc1`, the GI50 is > 100 µM (inactive) in test [1]; > 100 µM (inactive) in [2]; 83.8 µM (inactive) in test [3]; 99.5 µM (inactive) in [4]; > 100 µM (inactive) in test [5]; > 100 µM (inactive) in test [6]. Also, the GI50 was > 100 µM (inactive) in [7]; above 100 µM in test [8]; 99.3 µM (inactive) in [9]; > 100 µM (inactive) in test [10]; > 100 µM (inactive) in test [11]; > 100 µM (inactive) in [12]. The GI50 in test [13], in [14], in test [15] and in test [16] was > 100 µM (inactive) throughout.
`CCOC(=O)C1N(S(=O)(=O)c2ccc(C)cc2)CCC12C(c1ccc(OC)c(OC)c1)=Nc1ccccc12` (configuration not stated): the GI50 in test [1], in test [3], in test [4], in [5], in test [6] and in test [7] was > 100 µM (inactive) throughout. Also, the GI50 in test [17], in [9], in test [10], in test [11], in test [12] and in [13] was > 100 µM (inactive) in each case. In addition, the GI50 in test [14], in [15] and in [16] was > 100 µM (inactive) throughout.
As for `N#Cc1c2nc3ccccc3nc2n2ccc3ccccc3c12`, the GI50 in [1], in [2], in test [3], in test [4], in [6] and in [7] was > 100 µM (inactive) in each case. The GI50 in [17] was > 100 µM (inactive); in [8] it was above 100 µM; in test [9] it was > 100 µM (inactive); in [10], > 100 µM (inactive); in [11], > 100 µM (inactive); in test [12], 54 µM (inactive). For the same molecule, the GI50 in [13] is > 100 µM (inactive); in test [14], 32.4 µM (inactive); in [15], > 100 µM (inactive); in test [16], > 100 µM (inactive).
Regarding `COc1ccc(C(=O)O)c(Cc2ccc3ccccc3c2)c1`, the GI50 in test [1], in test [2], in test [3], in test [4], in test [5] and in test [6] was > 100 µM (inactive) in each case. In addition, the GI50 in test [7], in test [17], in test [9], in test [10], in test [11] and in test [12] was > 100 µM (inactive) throughout. Besides, the GI50 in [13], in test [14], in test [15] and in [16] was > 100 µM (inactive) in each case.
As for `CCN(CC)CCN(C)CC(C)(C)C(=O)/C=C/c1ccccc1`, the GI50 was 5.46 µM (inactive) in test [1]; 11.7 µM (inactive) in [2]; 14.2 µM (inactive) in [3]; 13.1 µM (inactive) in test [4]; 22.1 µM (inactive) in [5]; 5.68 µM (inactive) in test [6]. The GI50 in test [7] is 16.7 µM (inactive); in [17] it was 9.77 µM (inactive); in test [8] it was 12.5 µM; in test [9], 15.8 µM (inactive); in [10], 10 µM (inactive); in [11], 16 µM (inactive). Further, the GI50 is 12.6 µM (inactive) in [13], 12.1 µM (inactive) in test [14], 15 µM (inactive) in test [15] and 17.1 µM (inactive) in test [16].
As for `N#Cc1cccc(/C=N/N/C(N)=N/O)c1`, the GI50 in [1] is 53.2 µM (inactive); in [2], 72.6 µM (inactive); in [4] it was 9.18 µM (inactive); in test [5], 92.7 µM (inactive); in test [6] it was 32.1 µM (inactive); in test [7], 24.2 µM (inactive). The GI50 in test [17] is 21.6 µM (inactive); in test [8], 68.5 µM; in test [9] it was 78.3 µM (inactive); in test [10] it was 99.8 µM (inactive); in test [11], > 100 µM (inactive); in test [12] it was > 100 µM (inactive). For the same molecule, the GI50 in test [13] is 31.7 µM (inactive); in test [14], 52.7 µM (inactive); in test [15] it was > 100 µM (inactive); in test [16], 56.1 µM (inactive).
For the molecule `C[Si](C)(C)C(Sc1ccccc1)(Sc1ccccc1)Sc1ccccc1`, the GI50 in [1] was 53.6 µM (inactive); in test [2], 25.9 µM (inactive); in [3], 67.9 µM (inactive); in [4], 95.5 µM (inactive); in [6] it was > 100 µM (inactive); in test [8], 50.5 µM. Further, the GI50 in test [9] is > 100 µM (inactive); in test [10], > 100 µM (inactive); in test [11] it was 46.7 µM (inactive); in test [12], 60.3 µM (inactive); in test [13], 43 µM (inactive); in test [14], 60.3 µM (inactive). Moreover, the GI50 in test [15] was 74.1 µM (inactive).
Turning to `Cc1cccc(NC(=O)c2c(N)[n+]([O-])c3ccccc3[n+]2[O-])c1`, the GI50 in [1] is 11.7 µM (inactive); in test [2] it was 7.76 µM (inactive); in [3], 5.53 µM (inactive); in test [4], 16.9 µM (inactive); in [5] it was 17.1 µM (inactive); in test [6], 12.9 µM (inactive). Further, the GI50 in test [7] was 5.11 µM (inactive); in [17], 6.01 µM (inactive); in test [9], 10.2 µM (inactive); in test [10] it was 4.85 µM (inactive); in test [11] it was 8.05 µM (inactive); in test [12] it was 7.69 µM (inactive). Besides, the GI50 in [13] was 16.1 µM (inactive); in test [14], 14.9 µM (inactive); in test [15], 10.9 µM (inactive); in [16], 5.66 µM (inactive).
Take `N=C(N)NS(=O)(=O)c1ccc(NCCc2c3ccccc3nc3ccccc23)cc1`: the GI50 in [1], in [2], in test [4], in test [5], in test [6] and in test [7] was > 100 µM (inactive) each time. In addition, the GI50 in [17] was > 100 µM (inactive); in test [8], above 100 µM; in [9] it was > 100 µM (inactive); in test [10] it was > 100 µM (inactive); in [11], > 100 µM (inactive); in test [12] it was 41.9 µM (inactive). Further, the GI50 in test [13], in test [14], in [15] and in test [16] was > 100 µM (inactive) in each case.
Take `Cc1ccc(-c2cc(-c3ccccc3)c(C#N)c(=O)n2C2OC(CO)C(O)C(O)C2O)cc1` (configuration not stated): the GI50 in test [1] was > 100 µM (inactive); in [3] it was 58.5 µM (inactive); in test [4] it was > 100 µM (inactive); in test [5], > 100 µM (inactive); in test [6] it was > 100 µM (inactive); in [7], > 100 µM (inactive). Also, the GI50 in [17] was > 100 µM (inactive); in test [8] it was above 100 µM; in [9] it was > 100 µM (inactive); in test [10], > 100 µM (inactive); in test [11], > 100 µM (inactive); in test [12], > 100 µM (inactive). For the same molecule, the GI50 in [13], in test [14], in test [15] and in [16] was > 100 µM (inactive) in each case.
With `CCOC(=O)C1(C)CCC(C(C(=O)O)C(=O)O)CC1=O` (configuration not stated), the GI50 in [1], in [3], in test [4], in test [5], in [6] and in test [7] was > 100 µM (inactive) throughout. Besides, the GI50 in test [17] was > 100 µM (inactive); in test [8], above 100 µM; in test [9], > 100 µM (inactive); in test [10], > 100 µM (inactive); in [11], > 100 µM (inactive); in test [12], > 100 µM (inactive). Also, the GI50 in test [13], in test [14], in [15] and in test [16] was > 100 µM (inactive) in each case.
In the case of `CNC(=S)NC(=S)N(C)C`, the GI50 in [1] was 5.48 µM (inactive); in test [4], > 100 µM (inactive); in test [5], > 100 µM (inactive); in [6], 2.71 µM (inactive); in [7], > 100 µM (inactive); in test [17], 0.678 µM (active). The GI50 in [8] was above 100 µM; in [9], 4.94 µM (inactive); in test [10], > 100 µM (inactive); in test [11], 6.32 µM (inactive); in test [12], 4.71 µM (inactive); in test [13], > 100 µM (inactive). The GI50 in test [15] and in [16] was > 100 µM (inactive) throughout.
`CCC12CCCN(Cc3ccccc3)C1c1c(n(C)c3ccccc13)C(CO)C2` (configuration not stated): the GI50 in test [1] is 61.5 µM (inactive); in test [2], 55.7 µM (inactive); in test [3], 40.2 µM (inactive); in test [4], 71.9 µM (inactive); in [5], 37.6 µM (inactive); in test [6], 39.5 µM (inactive). In addition, the GI50 in test [7] is 38.5 µM (inactive); in test [17] it was 30.8 µM (inactive); in test [8], 38.3 µM; in test [9], 63.4 µM (inactive); in [10], 42.6 µM (inactive); in test [11], 61 µM (inactive). Also, the GI50 was 14 µM (inactive) in [12], 40.4 µM (inactive) in test [14], 26.9 µM (inactive) in test [15] and 34.3 µM (inactive) in test [16].
